This is an account of results in ChEMBL document CHEMBL4376816, “Discovery of the Oral Leukotriene C4 Synthase Inhibitor (1S,2S)-2-({5-[(5-Chloro-2,4-difluorophenyl)(2-fluoro-2-methylpropyl)amino]-3-methoxypyrazin-2-yl}carbonyl)cyclopropanecarboxylic Acid (AZD9898) as a New Treatment for Asthma” (J Med Chem, 2019).

Molecules are shown by their SMILES. The source made the active and inactive calls. The calls are words filed in the database; no cut-off is given here.

Series [1] in a line: Octanol/Sodium phosphate buffer partition coefficient, log D of compound at pH 7.4 at 1 mg incubated for overnight under shaking condition by LC-MS/MS analysis. The series is classed as physicochemical.
Series [2] in a line: Oral bioavailability in Beagle dog at 2 mg/kg via gavage after 48 hrs. The format is ADME, organism-based, Canis lupus familiaris. Conditions: in vivo.
Series [3] has as its target T1, Leukotriene C4 synthase (Homo sapiens) (UniProt Q16873).
T1 sequence (whole entry): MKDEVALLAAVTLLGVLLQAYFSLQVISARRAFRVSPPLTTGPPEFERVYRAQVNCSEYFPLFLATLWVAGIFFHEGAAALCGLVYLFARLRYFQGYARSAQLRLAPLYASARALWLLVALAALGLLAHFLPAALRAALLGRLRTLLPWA
As to the kind of experiment: Inhibition of LTC4S in asthmatic human whole blood assessed as inhibition of calcium ionophore A23187 stimulated cysteinyl leukotrienes production preincuabted for 30 mins followed by calcium ionophore stimulation and measured after 10 mins by LC-MS analysis. The series is classed as tissue-based.

For a further series, the target named is T2, Cytochrome P450 1A2 (Homo sapiens, UniProt P05177).
T2 sequence (P05177 whole entry): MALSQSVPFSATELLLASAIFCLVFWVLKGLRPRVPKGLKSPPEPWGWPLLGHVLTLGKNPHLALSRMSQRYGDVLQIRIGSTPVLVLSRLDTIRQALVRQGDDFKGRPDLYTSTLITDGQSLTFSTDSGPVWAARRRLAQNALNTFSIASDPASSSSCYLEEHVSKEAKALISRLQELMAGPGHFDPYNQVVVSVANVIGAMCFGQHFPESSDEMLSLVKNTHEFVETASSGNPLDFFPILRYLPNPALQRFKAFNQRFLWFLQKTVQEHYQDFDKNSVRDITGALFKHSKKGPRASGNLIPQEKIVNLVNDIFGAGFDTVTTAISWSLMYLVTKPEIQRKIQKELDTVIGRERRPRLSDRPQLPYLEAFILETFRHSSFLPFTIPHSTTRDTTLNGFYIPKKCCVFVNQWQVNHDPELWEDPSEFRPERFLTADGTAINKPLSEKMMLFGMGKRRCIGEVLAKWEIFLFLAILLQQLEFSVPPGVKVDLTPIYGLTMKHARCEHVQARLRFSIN
As to the kind of experiment: Inhibition of recombinant human CYP1A2 using coumarin based substrate by fluorescence assay. The series is classed as ADME.

For another series, the target named is Cytochrome P450 3A4 (Homo sapiens, UniProt P08684). As to the kind of experiment: Inhibition of recombinant human CYP3A4 expressed in Escherichia coli using coumarin based substrate by fluorescence assay. The format is ADME.
Series [4] deals with Sodium channel protein type 5 subunit alpha (Homo sapiens, UniProt Q14524). As to the kind of experiment: Inhibition of human Nav1.5 expressed in CHOK1 cells at < 33 uM at -90 mV holding potential by Ionwork-based analysis. The format is cell-based.
Series [5] deals with Potassium voltage-gated channel subfamily E member 1 (Homo sapiens, UniProt P15382). The experiment in a line: Inhibition of human minK expressed in CHOK1 cells at < 33 uM at -80 mV holding potential by Ionwork-based analysis. The series is classed as cell-based.
A further series concerns the target Cytochrome P450 2C19 (Homo sapiens, UniProt P33261). The experiment in a line: Inhibition of recombinant human CYP2C19 using coumarin based substrate by fluorescence assay. The series is classed as ADME.
Series [6] can be described thus: Toxicity in rat assessed as liver hypertrophy at 100 mg/kg, po after 7 days. The format is organism-based. The conditions noted are these: in vivo.
A short description of series [7]: Oral bioavailability in Han Wistar rat at 1 mg/kg after 24 hrs. The series is classed as ADME, organism-based. Conditions: in vivo.
Series [8] deals with T3, Solute carrier organic anion transporter family member 1B1 (Homo sapiens, UniProt Q9Y6L6).
T3 sequence (Q9Y6L6 whole entry): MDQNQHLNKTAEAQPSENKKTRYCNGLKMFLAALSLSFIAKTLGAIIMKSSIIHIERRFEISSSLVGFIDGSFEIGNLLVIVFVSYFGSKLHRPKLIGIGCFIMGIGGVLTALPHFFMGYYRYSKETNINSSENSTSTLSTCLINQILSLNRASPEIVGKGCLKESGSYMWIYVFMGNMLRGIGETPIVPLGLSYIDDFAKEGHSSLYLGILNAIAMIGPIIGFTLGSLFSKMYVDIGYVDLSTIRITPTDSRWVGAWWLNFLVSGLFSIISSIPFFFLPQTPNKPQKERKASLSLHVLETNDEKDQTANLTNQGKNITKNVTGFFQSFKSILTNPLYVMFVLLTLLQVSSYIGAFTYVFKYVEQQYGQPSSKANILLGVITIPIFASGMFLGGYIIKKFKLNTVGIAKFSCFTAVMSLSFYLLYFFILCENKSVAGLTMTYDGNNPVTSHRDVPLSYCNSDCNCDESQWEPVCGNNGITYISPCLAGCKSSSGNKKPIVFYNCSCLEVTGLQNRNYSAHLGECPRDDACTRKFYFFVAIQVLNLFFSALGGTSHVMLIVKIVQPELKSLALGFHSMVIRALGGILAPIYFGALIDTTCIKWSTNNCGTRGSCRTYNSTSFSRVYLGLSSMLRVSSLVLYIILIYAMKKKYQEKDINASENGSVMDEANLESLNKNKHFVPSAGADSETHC
The experiment in a line: Inhibition of OATP1B1 (unknown origin) expressed in HEK293 cells measured after 0.5 to 20 mins by scintillation counting analysis. The series is classed as ADME, cell-based.

The next series relates to Blood. As to the kind of experiment: Effect on arachidonic acid pathway in calcium ionophore A23187-stimulated asthmatic human whole blood assessed as increase in lipoxin level preincubated for 30 mins followed by calcium ionophore A23187 stimulation and measured after 60 mins by LC-MS analysis. The format is functional, tissue-based.
The target in series [9] is T4, Potassium voltage-gated channel subfamily KQT member 1 (Homo sapiens, UniProt P51787).
T4 sequence (P51787 whole entry): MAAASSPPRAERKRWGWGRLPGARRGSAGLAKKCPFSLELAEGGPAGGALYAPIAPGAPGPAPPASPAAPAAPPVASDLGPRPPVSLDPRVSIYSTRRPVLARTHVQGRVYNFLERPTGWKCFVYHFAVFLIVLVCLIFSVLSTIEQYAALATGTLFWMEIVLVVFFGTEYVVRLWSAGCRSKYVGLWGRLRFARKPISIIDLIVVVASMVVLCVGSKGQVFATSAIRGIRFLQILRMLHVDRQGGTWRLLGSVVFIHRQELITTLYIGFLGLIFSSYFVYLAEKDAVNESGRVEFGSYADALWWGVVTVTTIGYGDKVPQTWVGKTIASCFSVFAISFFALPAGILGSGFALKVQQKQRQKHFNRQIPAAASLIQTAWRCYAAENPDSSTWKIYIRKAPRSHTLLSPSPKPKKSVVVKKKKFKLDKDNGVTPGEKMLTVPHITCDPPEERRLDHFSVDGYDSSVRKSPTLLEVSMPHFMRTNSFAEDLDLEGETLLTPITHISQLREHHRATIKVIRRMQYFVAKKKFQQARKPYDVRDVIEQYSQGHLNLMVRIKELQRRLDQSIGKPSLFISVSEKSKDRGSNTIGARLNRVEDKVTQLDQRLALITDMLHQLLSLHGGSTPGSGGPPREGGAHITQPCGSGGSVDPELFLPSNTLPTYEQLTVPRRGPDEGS
As to the kind of experiment: Inhibition of human KvLQT1 expressed in CHOK1 cells at < 33 uM at -80 mV holding potential by Ionwork-based analysis. The series is classed as cell-based.

Series [10] is described as follows: Apparent permeability across apical to basolateral side in human Caco2 cells. Conditions: Caco-2. In general terms: Caco-2 cells form a polarised layer with tight junctions and transporters.
Series [11] in a line: Fraction unbound in cynomolgus monkey plasma by equilibrium dialysis based LC-MS analysis. The format is ADME, cell-free, Macaca fascicularis. In general terms: Equilibrium dialysis compares concentrations on both sides of a semipermeable membrane.

Sequence of Cytochrome P450 2C19 (P33261 whole entry): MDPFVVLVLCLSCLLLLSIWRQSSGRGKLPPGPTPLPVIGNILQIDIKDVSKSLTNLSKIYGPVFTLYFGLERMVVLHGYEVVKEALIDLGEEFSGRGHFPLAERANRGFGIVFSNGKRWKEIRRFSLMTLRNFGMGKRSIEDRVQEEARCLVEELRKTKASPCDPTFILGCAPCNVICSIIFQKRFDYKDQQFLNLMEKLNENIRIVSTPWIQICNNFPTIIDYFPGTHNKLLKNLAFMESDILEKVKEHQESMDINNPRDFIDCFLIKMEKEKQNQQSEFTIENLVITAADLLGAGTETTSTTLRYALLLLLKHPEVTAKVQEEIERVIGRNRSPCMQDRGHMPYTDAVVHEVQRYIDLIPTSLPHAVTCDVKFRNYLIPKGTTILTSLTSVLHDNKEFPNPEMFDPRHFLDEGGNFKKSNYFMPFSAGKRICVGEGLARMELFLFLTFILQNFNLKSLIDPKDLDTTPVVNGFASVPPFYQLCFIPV
Sequence of Sodium channel protein type 5 subunit alpha (Q14524 whole entry): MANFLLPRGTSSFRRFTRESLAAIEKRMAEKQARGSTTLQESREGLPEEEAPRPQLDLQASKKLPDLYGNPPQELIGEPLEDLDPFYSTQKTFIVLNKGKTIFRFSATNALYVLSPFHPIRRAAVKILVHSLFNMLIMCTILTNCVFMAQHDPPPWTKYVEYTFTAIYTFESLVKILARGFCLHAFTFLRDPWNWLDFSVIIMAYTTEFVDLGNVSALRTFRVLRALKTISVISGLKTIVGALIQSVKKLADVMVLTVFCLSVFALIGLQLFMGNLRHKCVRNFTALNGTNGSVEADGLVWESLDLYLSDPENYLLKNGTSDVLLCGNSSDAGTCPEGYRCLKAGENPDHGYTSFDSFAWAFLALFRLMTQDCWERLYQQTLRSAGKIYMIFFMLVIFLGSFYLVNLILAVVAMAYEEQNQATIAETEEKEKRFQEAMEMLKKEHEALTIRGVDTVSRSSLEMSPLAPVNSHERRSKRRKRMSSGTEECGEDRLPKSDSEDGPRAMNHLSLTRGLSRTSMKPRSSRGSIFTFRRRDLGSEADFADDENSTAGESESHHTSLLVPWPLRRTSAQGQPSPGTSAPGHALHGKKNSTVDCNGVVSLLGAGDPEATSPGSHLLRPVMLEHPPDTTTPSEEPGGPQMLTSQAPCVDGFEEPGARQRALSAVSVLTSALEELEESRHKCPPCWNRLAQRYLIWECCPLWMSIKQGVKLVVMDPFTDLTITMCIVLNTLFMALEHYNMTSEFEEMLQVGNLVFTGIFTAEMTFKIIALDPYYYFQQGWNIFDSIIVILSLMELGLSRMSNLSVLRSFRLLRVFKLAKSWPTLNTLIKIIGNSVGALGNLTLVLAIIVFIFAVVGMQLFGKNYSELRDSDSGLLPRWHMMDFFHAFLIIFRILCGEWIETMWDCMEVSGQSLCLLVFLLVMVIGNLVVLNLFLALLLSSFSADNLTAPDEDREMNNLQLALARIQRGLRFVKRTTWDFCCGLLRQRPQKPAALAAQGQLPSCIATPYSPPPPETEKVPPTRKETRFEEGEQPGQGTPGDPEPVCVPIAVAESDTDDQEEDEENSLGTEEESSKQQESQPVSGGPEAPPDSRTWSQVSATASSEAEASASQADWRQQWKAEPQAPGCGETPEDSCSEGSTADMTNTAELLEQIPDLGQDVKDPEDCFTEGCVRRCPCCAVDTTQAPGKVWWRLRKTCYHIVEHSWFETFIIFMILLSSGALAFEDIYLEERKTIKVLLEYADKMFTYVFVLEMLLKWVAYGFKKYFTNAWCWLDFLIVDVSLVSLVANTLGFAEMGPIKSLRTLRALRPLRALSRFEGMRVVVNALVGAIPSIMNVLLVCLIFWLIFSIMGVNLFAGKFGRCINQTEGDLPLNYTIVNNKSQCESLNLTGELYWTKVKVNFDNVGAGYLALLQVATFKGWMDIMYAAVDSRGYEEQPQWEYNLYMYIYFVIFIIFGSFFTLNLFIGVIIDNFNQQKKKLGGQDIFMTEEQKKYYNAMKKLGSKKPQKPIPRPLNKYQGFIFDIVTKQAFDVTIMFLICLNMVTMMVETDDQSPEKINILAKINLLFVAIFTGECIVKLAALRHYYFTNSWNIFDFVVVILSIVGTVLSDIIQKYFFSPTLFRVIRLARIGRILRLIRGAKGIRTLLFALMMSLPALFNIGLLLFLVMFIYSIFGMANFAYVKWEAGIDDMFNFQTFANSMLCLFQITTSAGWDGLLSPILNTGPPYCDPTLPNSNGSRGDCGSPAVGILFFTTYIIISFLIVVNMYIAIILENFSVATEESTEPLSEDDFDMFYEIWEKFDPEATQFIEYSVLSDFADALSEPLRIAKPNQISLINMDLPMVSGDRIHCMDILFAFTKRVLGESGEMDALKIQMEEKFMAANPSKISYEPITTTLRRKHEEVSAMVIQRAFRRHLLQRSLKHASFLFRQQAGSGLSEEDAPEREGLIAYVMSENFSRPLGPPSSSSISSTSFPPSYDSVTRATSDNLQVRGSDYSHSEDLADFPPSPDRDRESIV
Sequence of Cytochrome P450 3A4 (P08684 whole entry): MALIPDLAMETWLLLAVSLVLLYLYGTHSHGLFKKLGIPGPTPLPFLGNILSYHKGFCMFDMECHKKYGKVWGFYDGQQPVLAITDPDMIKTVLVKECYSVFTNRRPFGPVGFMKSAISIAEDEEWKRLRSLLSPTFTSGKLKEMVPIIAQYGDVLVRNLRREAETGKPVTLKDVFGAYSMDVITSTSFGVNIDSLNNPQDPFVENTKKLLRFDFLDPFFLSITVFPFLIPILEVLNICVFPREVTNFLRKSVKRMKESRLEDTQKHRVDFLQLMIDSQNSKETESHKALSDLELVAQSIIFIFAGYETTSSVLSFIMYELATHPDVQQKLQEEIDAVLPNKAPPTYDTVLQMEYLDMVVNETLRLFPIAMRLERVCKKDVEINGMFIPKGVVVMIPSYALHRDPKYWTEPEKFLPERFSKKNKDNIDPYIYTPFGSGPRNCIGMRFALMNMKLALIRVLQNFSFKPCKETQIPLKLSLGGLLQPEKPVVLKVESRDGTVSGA

For `COc1nc(N(CC(C)(C)F)c2cc(Cl)c(F)cc2F)cnc1C(=O)[C@H]1C[C@@H]1C(=O)O` [AZD-9898], in series [1], the logD – broadly, the decadic logarithm of the distribution of all forms, ionised or not, between an organic phase and buffer at a given pH – stood at 1.1. For the same compound, the bioavailability in series [2] and in series [7] was 100% in each case. Besides, in series [3], the inhibition entry is “Active”. Moreover, the half-inhibitory concentration (IC50) on Cytochrome P450 1A2, at Cytochrome P450 3A4 and at Cytochrome P450 2C19 was over 30 µM each time. Further, the “inhibition (INH)” value in [4], in series [5] and in series [9] was “Not Active” throughout. The figures for the Activity result (in series [6]; with Blood) were “Non-Toxic” and “Dose-dependent effect”, respectively. The INH in [8] stood at 3.2 µM. The Papp A→B – broadly, the apparent permeability from the apical to the basolateral side of a cell layer – in series [10] came to 61 ×10⁻⁶ cm/s. Besides, the fraction unbound (as a rule, free concentration divided by total concentration) in [11] was 0.03.
